Measured values reported in article PMC7617869, “Molecular glues that inhibit deubiquitylase activity and inflammatory signaling” (Nature Structural & Molecular Biology, 2025).
Where “and” joins values, the source holds several entries; their conditions need not be identical. Identical values can stand only once.

Assays:
Type in all cases: cell-based, human
[1] = tested on: IFN-stimulated response elements (ISRE) in THP-1 cells; experiment: THP-1 ISRE luciferase reporter, IFNα2 stimulation; settings: IFN + compound; replicate values
Protocol: (§1) THP-1 in vitro experiments
(§2) THP-1-DualTM cells (InvivoGen), derived from a human monocytic cell line, isolated from a patient with acute monocytic leukaemia, were cultured as per manufacturer’s guidance. Cells were seeded at 1x10^6 cells/mL in RPMI1640 media containing 10% fetal bovine serum (FBS), 1% penicillin-streptomycin (PS) (Gibco Laboratories) with DMSO (0.1%) (control) or in media containing JMS-175- […]
(§3) ng/mL) (Merck Life Science), ODN 2216 (1 µM) (Miltenyi Biotec), or Poly:IC (1 µg/mL) (InvivoGen).
(§4) Tofacitinib (Cambridge Biosciences) at 0.4 µM was used for comparison against a known JAK inhibitor.
(§5) Cells were centrifuged at 300 g for 5 minutes. Supernatant was removed and subjected to simultaneous study of the NF -κB pathway, by monitoring the activity of secreted alkaline phosphatase reporter (SEAP), and the IRF pathway, by assessing the activity o f a secreted Lucia luciferase using QUANTI - Blue ™ Solution and QUANTI -Luc™ 4 Lucia/Gaussia (InvivoGen), respectively, as per manufacturer’s instructions. Pelleted cells were used for FACS analysis using IFNα/β R1 APC-conjugated antibody or isotype control (Biotechne, FAB245A and IC002A), or unstained staining procedure with and without Zombie GreenTM (Biolegend). Samples were analysed using CytoFlex LX (Beckman) (50,000 live cells per condition). Median fluorescence intensity for APC channel gated on single cell live cells was analysed and compared as a percentage to control (no stimulation condition). […]

[2] = tested on: NF-κB pathway in THP-1 cells; experiment: THP-1 NF-κB pathway SEAP reporter, lipopolysaccharide stimulation; settings: LPS + compound, three replicates
Protocol: as §1, §2, §3, §4, §5

[3] = tested on: IFNAR1 surface levels in THP-1 cells; experiment: THP-1 IFNAR1 surface levels (FACS); settings: for IFNAR1 surface levels (Fig. 5h): IFN + compound, No IFN = 100; for IFNAR1 surface levels: THP-1, hIFNα2 25 ng/ml, 4 μM, 16 h
Protocol: as §1, §2, §3, §4, §5

[4] = tested on: ISG expression in MCF10A Cas9 cells expressing BRCC45 WT; experiment: MCF10A BRCC45 WT ISG expression (RT–qPCR); design: scale not given here; settings: BRCC45 KO+ BRCC45 WT; replicate values
Protocol: (§6) Supplementary Protocols 1. Experimental procedures for cell biology experiments. […]
(§7) Media supplements including human insulin solution (Santa Cruz Biotechnology, #sc-360248), cholera toxin from vibrio (Sigma Aldrich, #C8052-2MG), recombinant human EGF (PeproTech, #AF-100-15-100µg), hydrocortisone (Sigma-Aldrich, #H-0888) were used to grow MCF10A cells. The 4–12% Bis-Tris SDS-PAGE gels, cell culture media, horse serum and other materials for tissue culture were purchased from Invitrogen. LipoD293 (SigmaGen, #SL100668) was used for all the transfections to generate knock out cell lines.
(§8) Immortalised breast epithelial cell line MCF10A were cultured in 10 cm plates with Dulbecco’s Modified Eagle Medium (DMEM) + F-12 (1:1) supplemented with 5% horse serum, 100 ng/mL cholera toxin, 10 […]
(§9) Real-time quantitative PCR
(§10) 1x10^5 MCF10A cells were cultured as described above and seeded into 6 well plates. Cells were left to reach ultra-confluence. Once confluent, cells were washed with PBS and starved for 30 minutes in 2 mL DMEM + F-12 (1:1) supplemented with 1% horse serum. After 30 minutes cells were pre-treated with either DMSO (0.1%) (Control and IFN only) or BRISC inhibitor (2.5 µM) for 15 minutes. After 15 minutes, hIFN2α (75 ng/mL) was added to the media and mixed. Cells were treated for 4 hours. Cells were washed with ice cold PBS and scraped with cell scrapers into 350 µL RNAlater buffer and RNA […]
(§11) #79254). Isolated RNA was quantified using a Nanodrop spectrophotometer. RNA was converted into cDNA and the complementary DNA was used for real-time quantitative PCR analysis of expression of interferon stimulated genes (ISG15, IFIT1, IFIT2, IFITM1, CXCL10 and RNA18S) using an Applied Biosystems Quantstudio 6 RT-PCR system. All experiments were carried out in triplicate.

[5] = tested on: ISG expression in MCF10A Cas9 cells expressing BRCC45 R137A; experiment: MCF10A BRCC45 R137A ISG expression (RT–qPCR); design: scale not given here; settings: BRCC45 KO+ BRCC45 R137A; replicate values
Protocol: as §6, §7, §8, §9, §10, §11

[6] = tested on: IFNAR1 cell surface levels in MCF10A BRCC45 WT cells; experiment: MCF10A BRCC45 WT IFNAR1 cell surface levels (FACS); settings: for IFNAR1 cell surface levels (Fig. 5g): BRCC45 KO + BRCC45 WT, IFN + compound, No IFN about 100; for IFNAR1 cell surface levels: BRCC45 WT cells, IFN 50 ng/ml, 5 μM, 90 min
Protocol: (§12) To study the direct effect of BRISC DUB inhibitors, IFNAR1 surface levels were measured using flow cytometry (FACS) analysis. For this purpose, MCF10A WT and MCF10A BRCC45 KO cells expressing […]
(§13) BRCC45 WT or BRCC45 R137A were used. […]
(§14) minutes prior to the addition of 50 ng/mL of hIFN-Iα for various time points (45 minutes and 90 minutes).
(§15) After IFN treatment, cells were dissociated from plate using cell dissociation Buffer (ThermoFisher Scientific, #13150016) and were stained with LIVE/DEAD™ Fixable Violet Dead Cell Stain Kit, for 405 nm excitation (ThermoFisher Scientific, #L34963) for 30 minutes, as per the kit protocol. The cells were then washed using FACS buffer (DPBS, 1% BSA, 2 mM EDTA, 0.09% sodium azide) and transferred to 96-well round bottom plates. Resuspended cells were divided into three repeats for each sample, each was surface stained for 1 hour at 4 °C with: 1. Human IFN-alpha/beta R1 Antibody (R&D systems, #MAB245), 2. Mouse IgG1 Isotype Control (R&D systems, #MAB002), 3. FACS buffer (control cells).
(§16) Following incubation, cells were washed once with FACS buffer and were labelled for 30 minutes at 4 °C with either Biotin-SP-conjugated AffiniPure Donkey Anti-Mouse IgG (H+L) (Jackson Immunoresearch Laboratories) for samples 1 and 2 or with FACS buffer for sample 3. Cells were washed twice with FACS buffer and were labelled for 15 minutes at 4 °C with either R-Phycoerythrin-conjugated Streptavidin (Jackson Immunoresearch Laboratories) for samples 1 and 2 or with FACS buffer for sample 3. Cells were washed 3 times with FACS buffer and were analysed by FACS (MACSQuant, Miltenyi Biotec). For each sample from group 1 the Geo mean fluorescence intensity (MFI) of its isotype sample was reduced. IFNAR1 cell surface percentage was calculated by 100*(MFI

[7] = tested on: IFNAR1 cell surface levels in sgROSA MCF10A cells; experiment: MCF10A sgROSA IFNAR1 cell surface levels (FACS)
Protocol: as §12, §13, §14, §15, §16

[8] = IFN + compound, three replicates
[9] = sgROSA cells, IFN 50 ng/ml, 5 μM, 90 min

Compound | ISRE luciferase reporter signal (Fig. 5a) [1] | NF-κB SEAP reporter signal [2] | IFNAR1 surface levels (Fig. 5h) [3] | IFNAR1 surface levels [3] | ISG expression (Fig. 5b) [4] | ISG expression (Fig. 5c) [4] | ISG expression (Fig. 5e) [4] | ISG expression (Fig. 5f) [4] | ISG expression (Fig. 5d) [4] | ISG expression (Fig. 5b) [5] | ISG expression (Fig. 5c) [5] | ISG expression (Fig. 5e) [5] | ISG expression (Fig. 5f) [5] | ISG expression (Fig. 5d) [5] | IFNAR1 cell surface levels (Fig. 5g) [6] | IFNAR1 cell surface levels [6] | IFNAR1 cell surface levels [7, 8] | IFNAR1 cell surface levels [7, 9]
O=C(NC1C2CNCC21)c1nn(C(=O)c2c(Cl)cccc2Cl)cc1NC(=O)c1c(Cl)cccc1Cl (stereo not shown) [FX-171-C] | 3973.33 and 4177.33 and 5441.67 and 5023.67 | 1.133 and 1.071 and 1.161 | 56.2651 and 56.964 and 56.0526 | reduction in IFNAR1 surface levels | 0.4458 and 0.5019 and 0.5077 and 0.4274 and 0.4977 | 0.4481 and 0.428 and 0.4516 and 0.3326 and 0.4475 | 0.653 and 0.6751 and 0.6387 and 0.3593 and 0.4619 | 0.6515 and 0.6181 and 0.6111 and 0.3694 and 0.504 | 0.3965 and 0.3703 and 0.3895 and 0.4078 and 0.5134 | 1.886 and 0.9791 and 0.9889 and 0.9654 and 2.3346 | 1.805 and 0.9044 and 1.045 and 1.083 and 2.1 | 1.992 and 0.8788 and 0.9319 and 1.019 and 2.187 | 1.937 and 0.8462 and 0.8933 and 0.87 and 0.6063 | 2.039 and 1.092 and 1.112 and 1.2514 and 2.244 | 39.3476 and 40.435 and 39.71 | reduction in IFNAR1 cell surface levels | 42.0302 and 41.4187 and 41.1741 | reduction in IFNAR1 cell surface levels
O=C(NC1CCNCC1)c1nn(C(=O)c2c(Cl)cccc2Cl)cc1NC(=O)c1c(Cl)cccc1Cl [JMS-175-2] | 2914 and 3263.67 and 4737.67 and 4742.67 | 1.156 and 1.103 and 1.152 | 48.4567 and 45.7565 and 33.0649 | reduction in IFNAR1 surface levels | 0.5319 and 0.5863 and 0.5604 and 0.6288 and 0.7746 | 0.5095 and 0.5499 and 0.6199 and 0.6187 and 0.6726 | 0.6564 and 0.7321 and 0.7949 and 0.5784 and 0.6638 | 0.7407 and 0.6852 and 0.6633 and 0.7235 and 0.5173 | 0.4933 and 0.4932 and 0.5473 and 0.4528 and 0.6627 | 1.361 and 1.11 and 1.149 and 1.082 and 0.8783 | 1.325 and 1.127 and 1.329 and 1.145 and 0.8628 | 1.156 and 1.163 and 1.393 and 1.185 and 1.136 | 1.041 and 1.139 and 1.224 and 1.412 and 1.207 | 1.23 and 1.313 and 1.719 and 1.523 and 0.8668 | 38.381 and 37.8977 and 40.435 | reduction in IFNAR1 cell surface levels | 40.6849 and 39.7065 and 39.3396 | reduction in IFNAR1 cell surface levels
Cn1cc(NC(=O)c2c(Cl)cccc2Cl)c(C(=O)NC2CCN(C(=O)c3c(Cl)cccc3Cl)CC2)n1 [AP-5-145] | 5071.67 and 5115.33 and 6389 and 6090.67 | 1.142 and 1.08 and 1.107 | 65.8984 and 82.4668 and 66.4812 | no significant reduction | 0.8808 and 1 and 0.9871 and 1.027 and 0.974 | 0.8403 and 0.921 and 1.057 and 1.089 and 1.101 | 0.7343 and 0.7561 and 0.8094 and 1.106 and 1.138 | 0.7564 and 0.7183 and 0.7628 and 1.249 and 0.9766 | 1.013 and 1.064 and 1.1762 and 1.007 and 0.9192 | 1.156 and 0.9393 and 0.8616 and 0.9356 and 0.9314 | 1.216 and 0.9273 and 0.916 and 0.9352 and 0.7895 | 1.091 and 0.9001 and 0.8733 and 0.8458 and 0.7765 | 1.662 and 0.8736 and 0.8819 and 0.8534 and 1.058 | 1.117 and 1.15 and 0.9989 and 1.074 and 0.7573 | 55.2385 and 54.5047 and 53.242 | – | 50.5911 and 49.9799 and 55.4831 | –
